Experimental data from patent US8940510B2, “Spray dried microbes and methods of preparation and use” (University of Iowa Research Foundation, priority 2007, dated 2015).

Columns and labels:
[1] = molecular target: T1, glycolate oxidase (Spinacia oleracea, UniProt P05414); assay: Glycolate oxidase (DCIP) assay on Pichia pastoris whole-cell biocatalyst; format: biochemical, spinach; details: racemic substrate, lactic acid is 100%; for Relative GO activity, Permeabilized: permeabilized cells; for Relative GO activity, Spray-dried: spray-dried cells
T1 construct: expressed in transfected cells; host or cells: Pichia pastoris, single recombinant (NRRL Y-21001) or double recombinant, spray-dried and/or BAC-permeabilised whole cells
T1 sequence (P05414 1-369): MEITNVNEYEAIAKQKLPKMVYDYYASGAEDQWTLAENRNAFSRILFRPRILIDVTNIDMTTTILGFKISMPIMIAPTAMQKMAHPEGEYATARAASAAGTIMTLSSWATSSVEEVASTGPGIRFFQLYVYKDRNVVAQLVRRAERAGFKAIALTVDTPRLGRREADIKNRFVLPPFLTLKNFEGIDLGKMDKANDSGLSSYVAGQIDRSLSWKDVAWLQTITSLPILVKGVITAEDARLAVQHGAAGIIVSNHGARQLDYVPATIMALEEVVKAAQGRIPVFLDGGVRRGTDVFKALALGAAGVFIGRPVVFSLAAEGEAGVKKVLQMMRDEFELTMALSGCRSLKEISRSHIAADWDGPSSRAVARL
Experimental: Glycolate Oxidase Assay • 1. Weigh approximately 40 mg spray-dried cells (record exact weight) into a 10 mL centrifuge tube. • 2. Add 8.0 mL of DCIP assay solution (0.12 mM 2,6-dichloroindophenol and 80 mM Tris, pH 8.3). A DCIP solution that is stored at 4° C. may be used for up to 2 weeks. • 3. Mix to suspend cells, then remove 50 μL of suspension (about 0.25 mg dry cells) and place in 3.0 mL quartz cuvette with flea stirrer. Add 2.0 mL of DCIP assay solution. Cap with septum and bubble with nitrogen for 3 minutes. • 4. […]
In initial work (in the absence of spray-drying), after fermentation, cells were recovered by solid/liquid separation, and benzalkonium chloride (BAC) detergent was used to permeabilize cells for the enzyme reaction. […] Thus, another experiment (see below) compared spray-dried cells to several other methods of cell preparation: a) not spray-dried and not BAC treated, b) not spray-dried and treated with BAC, and c) spray-dried and treated with BAC. The spray-dried cells were treated with BAC after spray-drying to determine if spray-drying completely permeabilized the cells.
Detergent Cell Permeabilization • 1. Prepare mixture of 10 weight % cells/volume 50 mM phosphate buffer (pH 7.0) at room temperature. Add 0.1% (w/v) benzalkonium chloride. • 2. Stir or mix slowly for 60 minutes at room temperature, 25° C. • 3. Centrifuge (9950×g for 10 minutes at 5° C.), decant, and re-suspend cells three times (10% w/v) in 50 mM phosphate buffer (pH 7.0) at 5° C., centrifuge, decant. • 4. Permeabilized cells may be used immediately or stored up to one year at −80° C. prior to use.

[2] = tested on: glycolate oxidase; details: 100 mM; enzyme extracted from tobacco leaves; cited from earlier work

Compound	Relative GO activity, Permeabilized [1]	Relative GO activity, Spray-dried [1]	Effect on the catalytic action of glycolate oxidase [2]
CC(C)C(O)C(=O)O (racemic) [2-Hydroxy-3-methylbutyric acid]	1%	2%	
CCC(O)C(=O)O (racemic) [2-Hydroxybutyric acid]	91%	129%	
CCCCCCCCC(O)C(=O)O (racemic) [2-Hydroxydecanoic acid]	40%	49%	
O=C(O)C(O)Cc1c[nH]c2ccccc12 (racemic) [3-Indolelactic acid]	18%	26%	
O=C(O)C(O)Cc1ccccc1 (racemic) [3-Phenyllactic acid]	25%	37%	
CC(O)C(=O)O (racemic) [Lactic acid]	100%	100%	
O=C(O)C(O)c1ccccc1 (racemic) [Mandelic acid]	3%	3%	
O=C(O)C(O)CCl (racemic) [β-Chlorolactic acid]	100%	121%	
O=C(O)CO [Glycolic acid]	90%	94%	
O=C(O)C(=O)O [Oxalic acid]			inhibit
O=C(O)C(O)Cc1ccc(O)cc1 (centres unmarked) [p-Hydroxyphenyllactic acid]	26%	38%	
Trifluorolactic acid	11%	2%	
